Measurements from patent US20180371422A1, “NON-VIRAL IPSCS INDUCING METHOD, COMPOSITIONS, KITS AND IPSCS” (Guangzhou Biocare Biotechnology Co., Ltd, priority 2016, published 2018).
Structures can show the parent of a compound that is named as a salt.

The molecules below were run on urine-derived renal epithelial cells (assay: AP staining, efficiency of AP positive clones (iPSCs induction)). Details: Example 5; day 0 to day 8 of induction culture; FIG. 11-12.
Assay type: cell-based, human
Protocol: 1. The procedure for AP staining is as follows,
a) Aspirate and remove the growth medium from the cultures to be stained when the cell culture is finished, wash the culture with 1×PBS one time; Fix the cells with 4% paraformaldehyde at room temperature for 2 min;
b) Aspirate the fixing solution, wash the culture with 1×TBST for 3 times; Balance with AP buffer at room temperature for 5 min;
c) Chromogenic reaction was performed with AP chromogenic reagent at room temperature in dark for 15 min (5-15 min, terminated when the color of clones became darker and without background, increase the reaction time appropriately if the clones were not stained). The chromogenic reagent was aspirated, cells were washed with 1×PBS for two times, covered with an appropriate amount of 1×PBS, observed and counted under a microscope.
Alkaline phosphatase (AP) is a phosphomonoesterase. The alkaline phosphatase in the cytoplasm can hydrolyze sodium naphthol phosphate to produce α-naphthol in alkaline environments. The latter reacts with a stable azo salt and presents a deep purple color, which the presence of alkaline phosphatase and the abundance of expression could be determined accordingly. Alkaline phosphatase is highly expressed in undifferentiated pluripotent stem cells, and the activity of alkaline phosphatase in the differentiated pluripotent stem cells is decreased. Therefore, whether the cells are clones of iPSCs could be determined by alkaline phosphatase staining (AP staining). And, thus the efficiency of iPSCs production can be easily judged according to the efficiency of AP positive clones.
a) Electroporation transformation: The recombinant plasmids obtained in step 1) were added into the culture of renal epithelial cells after digestion with trypsin, and then transferred into the renal epithelial cells. After electroporation, the cells were seeded on a cell culture plate coated with extracellular matrix;
b) Induction culture: 1-3 days after Step 1), or when the cells reached a confluence of 30% or more, the culture medium of pluripotent stem cell was used to continue induction culture. About 15-30 days after the mature of iPSCs clones, the positive clones of iPSCs were identified by AP staining, and the efficiency of AP positive clones was calculated accordingly;

Compound	preferable concentration for promoting cell reprogramming (AP staining) [µM]
Cc1c[nH]c(-c2cnc(NCCNc3ccc(C#N)cn3)nc2-c2ccc(Cl)cc2Cl)n1 [CHIR-99021]	3
O=C(NOC[C@H](O)CO)c1ccc(F)c(F)c1Nc1ccc(I)cc1F [PD0325901]	0.5
CCCC(=O)[O-].[Na+] [sodium butyrate, Sodium Butyrate]	0.25
N[C@@H]1C[C@H]1c1ccccc1 [tranylcypromine hydrochloride, Tranylcypromine hydrochloride]	2
